Test results taken from US8323659B2, “Method for diagnosing and/or treating tumor” (Keio University, priority 2008, dated 2012).

Legend:
[1] = tested on: CD8+ cells of genetically modified mice expressing HLA-A24 (A24-Tg); experiment: Gamma interferon production by CD8+ cells of peptide-immunized HLA-A24 transgenic mice; assay type: cell-based, mouse; conditions: for gamma interferon producing activity at lower concentrations: peptide below 2 μg/mL, normalized to 10 μg/mL as 100%
Experimental: First, dendritic cell precursors were isolated from bone marrow cells of A24-Tg mice using LineagePanel Streptavidin Plus Magnetic Particles-DM (BD Biosciences Inc.) and cultured for 6 days in the presence of GM-CSF (10 ng/mL, Peprotech Inc.) to induce their differentiation. The dendritic cells thus obtained were cultured for 6 hours in the presence of each of the peptides having the sequences shown below (10 μg/mL, synthesized by Invitrogen Inc.), and then injected subcutaneously to genetically modified mice expressing HLA-A24 at 5×10^6 cells per mouse for immunization. In addition, SAGE which has been identified as a testicular tumor antigen and for which a HLA-A24-restricted peptide has been established, was used for a positive control experiment (Cancer Research 60:3848-3855, 2000), and dendritic cells not stimulated by a peptide were used as the negative control.
Spleen cells were collected from the mice one week after the immunization with each of the peptides, and were cultured under the stimulation by 10 μg/mL of the same peptide as used for immunization for 6 days, from which CD8+ cells were isolated by the MACS method using antibody-coupled magnetic beads from Miltenyi Inc . In order to produce cytokine at a higher level, the CD8+ cells (1×10^6) were further stimulated for 24 hours by 0.08 to 10 μg/mL of the same peptide in the presence of APC (1×10^7 cells) that was obtained by collecting the spleen cells freshly from a HLA-A24 expressing-genetically modified mouse and then inactivating the cells with mitomycin C. Amounts of gamma interferon contained in the culture supernatants were measured by Cytometric Bead Array kit for mouse (BD Biosciences Inc.).

[2] = tested on: CD8+ cells from PBMC of healthy individuals positive for HLA-A24; experiment: Gamma interferon production by peptide-induced human CD8+ cells; assay type: cell-based; conditions: IL-2 and APC; for gamma interferon production capability: FIG. 5D
Experimental: (§1) First, blood was collected from two healthy individuals positive for HLA-A24, to which 1/10 volume of 4% sodium citrate was added, and was overlaid on Ficoll-Paque (Amersham Inc.) and centrifuged (1500 rpm, 20 min, room temperature). The fraction of monocytes (PBMC) separated in the interface was cultured for 6 days under the stimulation with 10 μg/mL of each peptide, from which CD8+ cells were isolated by the MACS method using antibody-coupled magnetic beads (Miltenyi Inc). In order to estimate cytotoxic activity of the isolated CD8+ cells, they were cocultured with human colon cancer cell line COLO320 (HLA-A24^+ SAGE^+ HERV-H ^+ Env^+) as the target cell at a mixing ratio of [CD8+ cell:COLO320 tumor cell=50:1] for 6 hours. The killed tumor cells were detected using Immunocyto Cytotoxity Detection Kit (MBL inc.), and tumor-specific toxicity rates were calculated according to the protocol attached to the kit. Results are plotted in the graph of FIG. 5A.
In order to evaluate the gamma interferon production capability, 1×10^6 of CD8+ cells were stimulated by 1 or 10 μg/mL of each peptide for 24 hours in the presence of IL-2 (100 U/mL, Peprotech Inc.) and APC (5×10^6 cells) which was obtained by collecting the PBMCs freshly from a healthy individual and then inactivating them with mitomycin C. Amounts of gamma interferon contained in the culture supernatants were measured by Cytometric Bead Array kit for human (BD Biosciences Inc.). Results are plotted in the graph of FIG. 5B.
The gamma interferon production capability was evaluated by stimulating CD8+ cells with 0.1, 1 or 10 μg/mL of each peptide in the presence of IL-2 and APC. The results are plotted in the graph of FIG. 5D.

[3] = tested on: PKH67-labeled CD8+ cells in SCID mice; experiment: In vivo proliferation of peptide-induced CD8+ cells in immunodeficiency mice; design: species or system mouse; conditions: FIG. 8; for content of CD8+ cells in vivo: SCID mice, peptide 100 μg per animal via tail vein, 5 days, spleen and peripheral blood, versus no peptide administered
Experimental: In the same method as described in Example 4, CD8+ cells were obtained by culturing PBMCs with the stimulation of HERV-H#1 (final concentration 10 μg/mL). The CD8+ cells for a control group were obtained by culturing under the stimulation by NY-ESO-1 peptide (SEQ ID NO: 23) in place of HERV-H#1 at the same concentration. The CD8+ cells thus obtained were fluorescence-labeled by mixing with a fluorescent dye PKH67 (Sigma Corp.) and incubating for 10 min.
The PKH67-labeled CD8+ cells (2×10^6 cells), PBMCs (2×10^7 cells) collected from the same healthy individual, and a peptide (HERV-H Env or NY-ESO-1 (control groups) at 100 μg per animal) were injected via the tail vein of immunodeficiency mice (the SCID mice, CLEA Japan Inc.). Spleen cells and peripheral blood cells were collected from the mice on 5 days after the administration, and the content of PKH67-labeled CD8+ cells was measured by flow cytometry (BD Inc.). Mice treated similarly except that no peptide was administered were used for a control experiment.

[4] = tested on: human colon cancer cell line COLO320; experiment: Toxicity of peptide-induced CD8+ cells (HLA-A24 positive PBMC) against COLO320; assay type: cell-based
Experimental: as §1
The toxicity against tumor cells was evaluated by setting the ratio of CD8+ cells:COLO320 tumor cells to 6.25:1, 12.5:1, 25:1 or 50:1. The results are plotted in the graph of FIG. 5C.

[5] = tested on: human pancreatic tumor cell line Panc-1; experiment: Toxicity of peptide-induced CD8+ cells (HLA-A02 positive PBMC) against Panc-1; assay type: cell-based; conditions: two HLA-A02 positive healthy individuals; FIG. 5E
[6] = tested on: Clone F3 (Panc-1 cells in which the snail gene was forcibly expressed); experiment: Cell growth of Clone F3 after siRNA transfection; assay type: cell-based, human; conditions: F3 cells cultured 2 to 3 days after siRNA transfection; in contrast to untreated cells and control siRNA; FIG. 3A
Experimental: First, snail cDNA (CDS 71-865, 795 bp) was amplified by PCR using the Panc-1 cells that had been stimulated with TGF-beta known as an EMT-inducing agent, and was inserted into the EcoR I-Xho I restriction sites of pcDNA3.1 (+) plasmid vector (Invitrogen Inc.) having a G418 resistance gene. The vector was introduced into the tumor cell lines by electroporation. The cells were cultured for 2 weeks and then drug-resistant cells were selected with G418 (2 mg/mL) and cloned.
In this example, the expression of HERV-H env gene was suppressed in Clone F3 and cell invasion capability and growth rate were measured.
(§2) First, 5×10^4 of F3 cells, as well as F3 cells (#1 to #4, Invitrogen Inc.) that had been cultured for 2 to 3 days after transfected with each of the 4 kinds of HERV-H env gene specific-siRNAs (shown below) by PEI complex method (Polyplus Inc.), were counted. The numbers of cells as plotted in the graph of FIG. 3A were taken as a standard of the growth rates.
(§3) For control experiments, F3 cells (Control) transfected with a control oligonucleotide from Invitrogen, F3 cells (siRNA-snail) transfected with snail gene specific-siRNA (SiRNA-snail #1) (shown below) and a Panc-1 cell line (Parent) were used.

[7] = tested on: Clone F3 (Panc-1 cells in which the snail gene was forcibly expressed); experiment: Cell invasion capability of Clone F3 (matrigel Invasion Chamber); assay type: cell-based, human; conditions: F3 cells transfected with siRNA; matrigel-coated membrane, 4 hours; FIG. 3B
From the text: as §2
Then, the recovered cells were placed on the upper surface of the Invasion Chamber (pore size 8 μm, BD Bioscience Inc.) whose membrane was coated with matrigel, and cultured for 4 hours (37° C., 5% CO2). After cells remaining on the upper surface of the membrane were removed completely, the cells invaded into the lower surface of the membrane were fixed and stained with Crystal Violet solution and counted under a microscope to evaluate the cell invasion capability.
as §3

[8] = lower peptide concentration (0.1 μg/mL)
[9] = peptide concentrations equal to or higher than 1 μg/mL

FYSLLLYSL (listed as Homo sapiens) [HERV-H#2]
amounts of gamma interferon produced (comparison among the HERV-H Env peptides) ([1]; peptide 0.08 to 10 μg/mL, FIG. 4B): highest activity
gamma interferon producing activity at lower concentrations ([1]; FIG. 4B): significantly reduced

LLMWITQCF (listed as Homo sapiens) [NY-ESO-1, HLA-A24-restricted tumor antigen peptide clinically used in peptide vaccine treatments, reference compound]
gamma interferon production capability [2, 8]: significantly reduced
gamma interferon production capability [2, 9]: best production
content of CD8+ cells in vivo [3]: higher content of CD8+ cells

NYAEPPWPL (listed as Homo sapiens) [HERV-H#3]
gamma interferon producing activity at lower concentrations ([1]; FIG. 4B): significantly reduced

SYLHHTINL (listed as Homo sapiens) [HERV-H#1]
TCR-binding affinity ([1]; inferred from the concentration dependence of gamma interferon production, P<0.001, t-test): significantly higher than the other peptides
gamma interferon producing activity at lower concentrations ([1]; FIG. 4B): maintained
toxicity against tumor cells (COLO320) ([4]; E:T ratio equal to or more than 25:1, FIG. 5C): highest toxicity
toxicity against tumor cells (killed COLO320) ([4]; two HLA-A24 positive healthy individuals, CD8+ cell:COLO320 = 50:1, 6 hours, FIG. 5A): highest
gamma interferon production capability [2, 8]: still sufficient to induce gamma interferon production
gamma interferon production ([2]; peptide 10 μg/mL, 24 hours, FIG. 5B): significantly higher production than the other peptides
gamma interferon production capability [2, 9]: second best after NY-ESO-1
toxicity against tumor cells (killed Panc-1) [5]: highest toxicity
content of CD8+ cells in vivo [3]: higher content of CD8+ cells
self-proliferation of the induced CD8+ cells ([3]; no peptide administered to the mice, versus CD8+ cells induced by NY-ESO-1 peptide): less active
proliferation activity of the induced CD8+ cells ([3]; peptides administered to the mice, versus CD8+ cells induced by NY-ESO-1 peptide): higher than that of the CD8+ cells induced by NY-ESO-1 peptide

siRNA-snail: snail gene specific-siRNA; sense GCGAGCUGCAGGACUCUAAdTdT (SEQ ID NO: 18), antisense SEQ ID NO: 19 (sense GCGAGCUGCAGGACUCUAATT; antisense UUAGAGUCCUGCAGCUCGCTT; dTdT overhangs, further chemistry not given here)
cell growth (numbers of cells) [6]: strongly suppressed
cell invasion capability [7]: significantly reduced
